Reference: patent USRE36477E, “Benzoic acid derivatives and process for preparing the same” (Taiho Pharmaceutical Co., Ltd., priority 1988, dated 1999)

Tested on: human acute promyelocytic leukemia cells (HL-60)
Assay: Differentiation of human acute promyelocytic leukemia cells (HL-60), morphological changes of nuclei and NBT reduction
Assay type: cell-based
Conditions: HL-60 cells, 4 days culture, Wright-Giemsa stain
Protocol: The test of the activities of the compounds of this invention has been conducted by measuring the concentration required for inducing the differentiation of human acute promyelocytic leukemia cells (HL 60), according to the methods described in detail hereinafter.
The HL-60 cells are cultured in plastic flasks in RPMI 1640 medium supplemented with 5% heat-inactivated fetal calf serum and antibiotics (penicillin G and streptomycin). The cells (3×10^4 /ml) are cultured with a compound of the present invention for 4 days. The cells are fixed and stained with Wright-Giemsa to examine the morphological changes of the nuclei. […] The biochemical activity of cells treated with the compound is measured as follows:
The cells after 5 days incubation are centrifuged and diluted with RPMI 1640 medium, supplemented with 5% fetal calf serum, to provide a definite number of the cells. To the diluted cell suspension are then added 200 ng/ml of 12-o-tetradodecanoylphorbol-13-acetate (TPA) and the resulting culture medium is then incubated for 20 minutes at 37° C. in the presence of 0.1% of NBT. Thus, the mature differentiated cells containing blue-black formazan are counted by microscope, so that the ratio of the cells having the ability to reduce NBT, to total cells, can be calculated.
As a positive control for comparison, the known compounds represented by the formula (II) and trans retinoic acid were used.

Structure (SMILES)	morphological changes of the nuclei (differentiation)
CC1=C(/C=C/C(C)=C/C=C/C(C)=C/C(=O)O)C(C)(C)CCC1 [retinoic acid]	differentiated to mature granulocytes (myelocytes, metamyelocytes and neutrophiles)

Same assay, conditions: Homo sapiens, 96 h; HL-60 cells; Table 1; read-out: ED50 (effective doses which cause differentiation of 50% of the cultured cells)

Structure (SMILES)	EC50 [nM]
CC(C)(C)c1cccc(NC(=O)c2ccc(C(=O)O)cc2)c1	1000
C[Si](C)(C)c1cc(NC(=O)c2ccc(C(=O)O)cc2)cc([Si](C)(C)C)c1	20
CC(C)(C)c1cc(C(=O)/C=C/c2ccc(C(=O)O)cc2)cc(C(C)(C)C)c1	0.4
CC(C)(C)c1cccc(C(=O)/C=C/c2ccc(C(=O)O)cc2)c1	100

Same assay, conditions: Homo sapiens, HL-60, 96 h, read-out: ED50 (effective doses which cause differentiation of 50% of the cultured cells)

Structure (SMILES)	EC50 [nM]
C[Si](C)(C)c1cc(C(=O)/C=C/c2ccc(C(=O)O)cc2)cc([Si](C)(C)C)c1	0.2
CC1=C(/C=C/C(C)=C/C=C/C(C)=C/C(=O)O)C(C)(C)CCC1 [retinoic acid]	2
C[Si](C)(C)c1cccc(NC(=O)c2ccc(C(=O)O)cc2)c1	80
C[Si](C)(C)c1cccc(/C=C/c2ccc(C(=O)O)cc2)c1	60
